In general, IC50 refers to the concentration needed to halve the response being measured.

Sequence of human GPR17 short isoform (Q13304 29-367): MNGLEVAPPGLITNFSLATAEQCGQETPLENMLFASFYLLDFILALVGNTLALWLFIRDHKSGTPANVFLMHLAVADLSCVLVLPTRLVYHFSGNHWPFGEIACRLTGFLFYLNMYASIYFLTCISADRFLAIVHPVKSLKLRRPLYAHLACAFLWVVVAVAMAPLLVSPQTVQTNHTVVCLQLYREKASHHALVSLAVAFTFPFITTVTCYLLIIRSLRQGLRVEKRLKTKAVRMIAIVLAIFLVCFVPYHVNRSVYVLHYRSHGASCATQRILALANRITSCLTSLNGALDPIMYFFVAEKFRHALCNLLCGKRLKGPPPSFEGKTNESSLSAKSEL

The target in this assay is human GPR17 short isoform (Homo sapiens, UniProt Q13304). The assay is described as follows: GPR17 cAMP assay (TR-FRET cAMP quantification, antagonist mode). Type of assay: cell-based. Particulars: CHO-K1 cells stably expressing human GPR17 short isoform; EC80 of agonist MDL29,951; forskolin 15µM; IBMX 0.5mM; 30 minutes at room temperature; read-out: hGPR17 cAMP IC50. In a few lines:
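CHO-K1 cells stably expressing untagged human GPR17 short isoform, 10'000 cells/well in HBSS/10mM HEPES/0.1% BSA pH 7.4. Compounds added with EC80 MDL29,951 plus 0.5mM IBMX, then 15µM forskolin; 30 min at room temperature. cAMP read by TR-FRET after 90 min lysis; normalized to reference antagonist maximal activity, sigmoidal fit.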
For orientation: cAMP levels reflect the balance of adenylyl cyclase and phosphodiesterase activity.
As for `COc1nc(NS(=O)(=O)c2c[nH]c3c(-c4cnccn4)c(Cl)ccc23)nc(OC)c1OC(F)F` [Example 20, 6-chloro-N-[5-(difluoromethoxy)-4,6-dimethoxy-pyrimidin-2-yl]-7-pyrazin-2-yl-1H-indole-3-sulfonamide], the IC50 amounted to 32 nM.
The result for `COc1nc(NS(=O)(=O)c2c[nH]c3c(-c4nccnc4F)c(Cl)ccc23)nc(OC)c1OC(F)F` [Example 99, 6-chloro-N-[5-(difluoromethoxy)-4,6-dimethoxy-pyrimidin-2-yl]-7-(3-fluoropyrazin-2-yl)-1H-indole-3-sulfonamide] reads 38 nM.
For `COc1nc(NS(=O)(=O)c2c[nH]c3c(-c4ncccn4)c(Cl)ccc23)nc(OC)c1OCC#N` [Example 78, 6-chloro-N-[5-(cyanomethoxy)-4,6-dimethoxy-pyrimidin-2-yl]-7-(2-pyrimidyl)-1H-indole-3-sulfonamide], the IC50 was found to be 122 nM.
The figure for `COc1nc(NS(=O)(=O)c2c[nH]c3c(-c4ccccn4)c(Cl)ccc23)nc(OC)c1CC(F)F` [Example 18, 6-chloro-N-[5-(2,2-difluoroethyl)-4,6-dimethoxy-pyrimidin-2-yl]-7-(2-pyridyl)-1H-indole-3-sulfonamide] is 19 nM; for `COc1nc(NS(=O)(=O)c2c[nH]c3c(-c4ncccn4)c(F)ccc23)nc(OC)c1CC(F)F` [Example 27, N-[5-(2,2-difluoroethyl)-4,6-dimethoxy-pyrimidin-2-yl]-6-fluoro-7-(2-pyrimidyl)-1H-indole-3-sulfonamide] it is 120 nM.
In the case of `COc1nc(NS(=O)(=O)c2c[nH]c3c(-c4cnccn4)c(F)ccc23)nc(OC)c1CC(F)F` [Example 31, N-[5-(2,2-difluoroethyl)-4,6-dimethoxy-pyrimidin-2-yl]-6-fluoro-7-pyrazin-2-yl-1H-indole-3-sulfonamide], the IC50 turned out to be 84 nM.
The result for `COc1nc(NS(=O)(=O)c2c[nH]c3c(-c4ncccn4)c(F)ccc23)nc(OC)c1OC(F)F` [Example 29, N-[5-(difluoromethoxy)-4,6-dimethoxy-pyrimidin-2-yl]-6-fluoro-7-(2-pyrimidyl)-1H-indole-3-sulfonamide] reads 604 nM.
The figure for `COc1nc(NS(=O)(=O)c2c[nH]c3c(-c4ncccn4)c(Cl)ccc23)nc(OC)c1OC(F)F` [Example 23, 6-chloro-N-[5-(difluoromethoxy)-4,6-dimethoxy-pyrimidin-2-yl]-7-(2-pyrimidyl)-1H-indole-3-sulfonamide] is 50 nM.
Regarding `COc1nc(NS(=O)(=O)c2c[nH]c3c(-c4cnc(Cl)cn4)c(Cl)ccc23)nc(OC)c1CC(F)F` [Example 91, 6-chloro-7-(5-chloropyrazin-2-yl)-N-[5-(2,2-difluoroethyl)-4,6-dimethoxy-pyrimidin-2-yl]-1H-indole-3-sulfonamide], the IC50 turned out to be 225 nM.
The result for `COc1nc(NS(=O)(=O)c2c[nH]c3c(-c4ncccn4)c(C)ccc23)nc(OC)c1CC(F)F` [Example 52, N-[5-(2,2-difluoroethyl)-4,6-dimethoxy-pyrimidin-2-yl]-6-methyl-7-(2-pyrimidyl)-1H-indole-3-sulfonamide] reads 22 nM.
The figure for `COc1nc(NS(=O)(=O)c2c[nH]c3c(-c4ncccn4)c(Cl)ccc23)nc(OC)c1C` [Example 85, 6-chloro-N-(4,6-dimethoxy-5-methyl-pyrimidin-2-yl)-7-(2-pyrimidyl)-1H-indole-3-sulfonamide] is 44 nM; for `COc1nc(NS(=O)(=O)c2c[nH]c3c(-c4cnccn4)cccc23)nc(OC)c1CC(F)F` [Example 25, N-[5-(2,2-difluoroethyl)-4,6-dimethoxy-pyrimidin-2-yl]-7-pyrazin-2-yl-1H-indole-3-sulfonamide] it is 56 nM.
Consider `COc1nc(NS(=O)(=O)c2c[nH]c3c(-c4ncccn4)c(C(F)F)ccc23)nc(OC)c1OC(F)F` [Example 50, N-[5-(difluoromethoxy)-4,6-dimethoxy-pyrimidin-2-yl]-6-(difluoromethyl)-7-(2-pyrimidyl)-1H-indole-3-sulfonamide], for which the IC50 is 288 nM.

The record behind these values is patent EP4562003B1, “NOVEL 7-SUBSTITUTED INDOLE SULFONAMIDE DERIVATIVES” (F. Hoffmann-La Roche AG, priority 2022, dated 2024).
